Experiments:
[1] = tested on: Helminthosporium sativum; experiment: Foliar spray for the control of barley blotch; assay type: in vivo; conditions: 300 ppm, greenhouse foliar spray, barley plants
Description: Foliar Spray for the Control of Barley Blotch Caused by Helminthosporium sativum
Technical grade material at defined ppm rates (w/v) in an acetone:water mixture (1:9) containing 0.1% Tween 20 (v/v) is sprayed to near run-off onto 7-days-old greenhouse-grown barley plants (var. “Robust”) at the cotyledon stage. Treated plants are inoculated within 24 hours from spraying with an aqueous suspension of approximately 15,000 conidia/ml of Helminthosporium sativum grown on artificial medium. Inoculated plants are placed into a high humidity chamber for 24 hr and then transferred to the greenhouse for 4–5 days for disease development. Disease severity is examined and the % control is calculated as [% disease on untreated plants−% disease on treated plants]/% disease on untreated plants.
The results of these tests are shown in Table 2A below under the heading “Foliar Application—Barley Blotch”.

[2] = tested on: Phytophthora infestans; assay type: in vivo; conditions: 300 ppm, greenhouse foliar spray, tomato plants
[3] = tested on: Barley Powdery Mildew; experiment: Soil drench for the control of barley powdery mildew; assay type: in vivo, Erysiyphe graminis f.sp. hordei; conditions: 300 ppm, greenhouse soil drench
Description: (§1) Soil Drench for the Control of Barley or Cucumber Powdery Mildew
(§2) Technical grade material formulated as described for foliar sprays is dispensed at defined rates (ml/cm^3) into the soil in the pots for barley and cucumber in the stages as described for the foliar sprays. Treated plants are inoculated, within 24 hours with the respective powdery mildew species as described for the foliar spray tests. Inoculated plants are kept in the greenhouse for 6–8 days for disease development. Disease severity is examined and the % control is calculated as [% disease on untreated plants−% disease on treated plants]/% disease on untreated plants. The results of these tests are shown in Table 2B below under the heading “Drench Application—Barley Powdery Mildew” and “Drench Application—Cucumber Powdery Mildew”.

[4] = tested on: Phytophthora infestans; experiment: microbe, parasite or virus in culture; assay type: cell-based; conditions: in vitro, rate 100 ppm, 48 hours
[5] = tested on: Pythium ultimum; experiment: microbe, parasite or virus in culture; assay type: cell-based
[6] = tested on: Erysiyphe polygoni; experiment: Foliar spray for the control of bean powdery mildew; assay type: in vivo; conditions: 300 ppm, greenhouse foliar spray, Pinto bean plants
Description: Foliar Spray for the Control of Bean Powdery Mildew Caused by Erysiyphe polygoni
Technical grade material at defined ppm rates (w/v) in an acetone:water mixture (1:9) containing 0.1% Tween 20 (v/v) is sprayed to near run-off onto greenhouse-grown Pinto bean plants (var. “Othello”) in the second leaf stage. Treated plants are inoculated within 24 hours by brushing mildew-infected plants over treated plants. Inoculated plants are kept in the greenhouse for two weeks for disease development. Disease severity is examined and the % control is calculated as [% disease on untreated plants−% disease on treated plants]/% disease on untreated plants. The results of these tests are shown in Table 2A below under the heading “Foliar Application—Bean Powdery Mildew”.

[7] = tested on: Uromyces appendiculatus; experiment: Foliar spray for the control of bean rust; assay type: in vivo; conditions: 300 ppm, screened against rust on beans as foliar-applied eradicant
Description: Foliar Spray for the Control of Bean Rust Caused by Uromyces appendiculatus
Technical grade material at defined ppm rates (w/v) in an acetone:water mixture (1:9) containing 0.1% Tween 20 (v/v) is sprayed to near run-off onto 10-days-old greenhouse-grown Pinto bean plants (var. “Othello”) in the second leaf stage. Treated plants are inoculated within 24 hours with an aqueous suspension of approximately 20,000 uredospores of Uromyces appendiculatus harvested from rust-infected plants. Inoculated plants are placed into a high humidity chamber for 24 hr and then transferred to the greenhouse for two weeks for disease development. Disease severity is examined and the % control is calculated as [% disease on untreated plants−% disease on treated plants]/% disease on untreated plants. The results of these tests are shown in Table 2A below under the heading “Foliar Application—Bean Rust”.

[8] = tested on: Sclerotinia minor; assay type: cell-based
[9] = tested on: Fusarium nivale; experiment: microbe, parasite or virus in culture; assay type: cell-based
[10] = tested on: Erysiyphe graminis f.sp. hordei; experiment: Foliar spray for the control of barley powdery mildew; assay type: in vivo; conditions: 300 ppm, greenhouse foliar spray, barley plants
Description: Foliar Spray for the Control of Barley Powdery Mildew caused by Erysiyphe graminis f.sp. hordei
Technical grade material at defined ppm rates (w/v) in an acetone:water mixture (1:9) containing 0.1% Tween 20 (v/v) is sprayed to near run-off onto 7-days-old greenhouse-grown barley plants (var. “Robust”) at the cotyledon stage. Treated plants are inoculated within 24 hours by brushing mildew-infected plants over the treated plants. Inoculated plants are kept in the greenhouse for 6–8 days for disease development. Disease severity is examined and the % control is calculated as [% disease on untreated plants−% disease on treated plants]/% diseases in untreated plants. The results of these tests are shown in Table 2A below under the heading “Foliar Application—Barley Powdery Mildew”.

[11] = tested on: Rhizoctonia solani; experiment: microbe, parasite or virus in culture; assay type: cell-based
[12] = tested on: Botrytis cinerea; experiment: microbe, parasite or virus in culture; assay type: cell-based
[13] = tested on: Cercosporidium personatum; assay type: cell-based
[14] = tested on: Cucumber Powdery Mildew; experiment: Soil drench for the control of cucumber powdery mildew; assay type: in vivo; conditions: 300 ppm, greenhouse soil drench
Description: as §1, §2

[15] = tested on: Colletotrichum gossypii; assay type: cell-based
[16] = tested on: Sclerotium rolfsii; assay type: cell-based

| SMILES | Foliar Application (Percent Control) Barley Blotch [1] | Foliar Application (Percent Control) Tomato Late Blight [2] | Drench Application (Percent Control) Barley Powdery Mildew [3] | Percent Control Phytophthora infestants [4] | Percent Control Pythium ultimum [5] | Foliar Application (Percent Control) Bean Powdery Mildew [6] | Foliar Application (Percent Control) Bean Rust [7] | Percent Control Sclerotinia minor [8] | Percent Control Fusarium nivale [9] | Foliar Application (Percent Control) Barley Powdery Mildew [10] | Percent Control Rhizoctonia solani [11] | Percent Control Botrytis cinerea [12] | Percent Control Cercosporidium personatum [13] | Drench Application (Percent Control) Cucumber Powdery Mildew [14] | Percent Control Colletotricum gossypii [15] | Percent Control Sclerotium rolfsii [16] |
| --- | --- | --- | --- | --- | --- | --- | --- | --- | --- | --- | --- | --- | --- | --- | --- | --- |
| CCC(C)OC(=O)NN(C(=O)C(F)(F)F)c1ccc(Sc2ccccc2)cc1 (stereo not drawn) [Compound 4] | 0% | 0% | 0% | 100% | 15% | 88% | 0(e) % | 50% | 50% | 0% | 95% | 75% | 65% | 0% | 15% |  |
| COC(=O)NNc1ccc(Oc2cccnc2)cc1 [Compound 5] | 0% |  | 0% | 20% | 70% | 0% | 0(e) % | 100% | 90% | 0% | 0% | 25% | 0% | 0% | 100% | 100% |
